Results as given in US20220380368A1, “SPIROCYCLIC ANDROGEN RECEPTOR PROTEIN DEGRADERS” (THE REGENTS OF THE UNIVERSITY OF MICHIGAN, priority 2019, published 2022).
Like-named read-outs stand apart in the source and are kept apart here.

Test: Mouse PK studies after oral and IV dosing
Type: in vivo
Settings: for F: PO 3 mg/kg vs IV 1 mg/kg; for AUC(0-t) / clearance / half-life / Vd / Cmax / Tmax: in vivo; for clearance: read-out: IV Cl (converted); for Vd: read-out: IV VSS
Method: The pharmacokinetics of representative Compounds of the Disclosure were determined after oral and IV dosing at the concentrations indicated in mouse (Table 7). […] The vehicles used in these studies are either (i) 10% PEG400+90% PBS (adjusted to pH to 8.0 by 0.5 N NaOH); or (ii) 100% PEG200.

[1] = iv, 1 mg/kg, IV, dose 1 mg/kg, read-out: IV AUC(0 − t)
[2] = iv, 1 mg/kg, IV, dose 1 mg/kg, read-out: IV T1/2 (converted)
[3] = po, 3 mg/kg, PO, dose 3 mg/kg, read-out: PO AUC(0 − t)
[4] = po, 3 mg/kg, PO, dose 3 mg/kg, read-out: PO T1/2 (converted)

## C[C@H]1CC2(CCN(c3ccc(C(=O)N4CCN(CC5CCN(c6cc7c(cc6F)C(=O)N(C6CCC(=O)NC6=O)C7=O)CC5)CC4)nn3)CC2)CN1c1ccc(C#N)c(Cl)c1 (stereo partly drawn) [compound 588]
  F: 54%
[1]
  AUC(0-t): 1080 ng·h/mL
iv, 1 mg/kg, IV, dose 1 mg/kg
  clearance: 13.8 mL/min/kg
  Vd: 6.76 L/kg
[2]
  half-life: 570 min
po, 3 mg/kg
  Cmax: 347 ng/mL
  Tmax: 1 h
[3]
  AUC(0-t): 1760 ng·h/mL
[4]
  half-life: 354 min

## C[C@H]1CC2(CCN(c3ccc(C(=O)N4CCC(CN5CCN(c6cc7c(cc6F)C(=O)N(C6CCC(=O)NC6=O)C7=O)CC5)CC4)cc3)CC2)CN1c1ccc(C#N)c(Cl)c1 (stereo partly drawn) [Cpd. No. 444, 2-chloro-4-((3S)-8-(4-(4-((4-(2-(2,6-dioxopiperidin-3-yl)-6-fluoro-1,3-dioxoisoindolin-5-yl)piperazin-1-yl)methyl)piperidine-1-carbonyl)phenyl)-3-methyl-2,8-diazaspiro[4.5]decan-2-yl)benzonitrile]
  F: 68%
[1]
  AUC(0-t): 7800 ng·h/mL
iv, 1 mg/kg, IV, dose 1 mg/kg
  clearance: 1.83 mL/min/kg
  Vd: 1.2 L/kg
[2]
  half-life: 498 min
po, 3 mg/kg
  Cmax: 1250 ng/mL
  Tmax: 4 h
[3]
  AUC(0-t): 16000 ng·h/mL
[4]
  half-life: 414 min

## C[C@H]1CC2(CCN(c3ccc(C(=O)N4CC[C@@H](CN5CCN(c6ccc7c(c6)C(=O)N(C6CCC(=O)NC6=O)C7=O)CC5)C4)cc3)CC2)CN1c1ccc(C#N)c(Cl)c1 (stereo partly drawn) [compound 448]
  F: 26%
[1]
  AUC(0-t): 78 ng·h/mL
iv, 1 mg/kg, IV, dose 1 mg/kg
  clearance: 203 mL/min/kg
  Vd: 25.3 L/kg
[2]
  half-life: 164 min
po, 3 mg/kg
  Cmax: 16 ng/mL
  Tmax: 1.67 h
[3]
  AUC(0-t): 60 ng·h/mL
[4]
  half-life: 287 min

## C[C@H]1CC2(CCN(c3ccc(C(=O)N4CCN(C5CN(c6cc7c(cc6F)C(=O)N(C6CCC(=O)NC6=O)C7=O)C5)CC4)cc3)CC2)CN1c1ccc(C#N)c(Cl)c1 (stereo partly drawn) [Cpd. No. 344, 2-chloro-4-((3S)-8-(4-(4-(1-(2-(2,6-dioxopiperidin-3-yl)-6-fluoro-1,3-dioxoisoindolin-5-yl)azetidin-3-yl)piperazine-1-carbonyl)phenyl)-3-methyl-2,8-diazaspiro[4.5]decan-2-yl)benzonitrile]
  F: 64%
[1]
  AUC(0-t): 4930 ng·h/mL
iv, 1 mg/kg, IV, dose 1 mg/kg
  clearance: 3.17 mL/min/kg
  Vd: 1.58 L/kg
[2]
  half-life: 414 min
po, 3 mg/kg
  Cmax: 841 ng/mL
  Tmax: 4 h
[3]
  AUC(0-t): 9470 ng·h/mL
[4]
  half-life: 360 min

## C[C@H]1CC2(CCN(c3ccc(C(=O)N4CCC(N5CCN(c6ccc7c(c6)C(=O)N(C6CCC(=O)NC6=O)C7=O)CC5)CC4)cc3)CC2)CN1c1ccc(C#N)c(Cl)c1 (stereo partly drawn) [Cpd. No. 443, 2-chloro-4-((3S)-8-(4-(4-(4-(2-(2,6-dioxopiperidin-3-yl)-1,3-dioxoisoindolin-5-yl)piperazin-1-yl)piperidine-1-carbonyl)phenyl)-3-methyl-2,8-diazaspiro[4.5]decan-2-yl)benzonitrile]
  F: 67%
[1]
  AUC(0-t): 8440 ng·h/mL
iv, 1 mg/kg, IV, dose 1 mg/kg
  clearance: 2 mL/min/kg
  Vd: 1.02 L/kg
[2]
  half-life: 426 min
po, 3 mg/kg
  Cmax: 1870 ng/mL
  Tmax: 2 h
[3]
  AUC(0-t): 15500 ng·h/mL
[4]
  half-life: 323 min

## C[C@H]1CC2(CCN(c3ccc(C(=O)N4CCN(C5CN(c6ccc7c(c6)C(=O)N(C6CCC(=O)NC6=O)C7)C5)CC4)cc3)CC2)CN1c1ccc(C#N)c(Cl)c1 (stereo partly drawn) [Cpd. No. 348, 2-chloro-4-((3S)-8-(4-(4-(1-(2-(2,6-dioxopiperidin-3-yl)-3-oxoisoindolin-5-yl)azetidin-3-yl)piperazine-1-carbonyl)phenyl)-3-methyl-2,8-diazaspiro[4.5]decan-2-yl)benzonitrile]
  F: 12%
[1]
  AUC(0-t): 10100 ng·h/mL
iv, 1 mg/kg, IV, dose 1 mg/kg
  clearance: 1.67 mL/min/kg
  Vd: 0.9 L/kg
[2]
  half-life: 450 min
po, 3 mg/kg
  Cmax: 334 ng/mL
  Tmax: 2 h
[3]
  AUC(0-t): 3740 ng·h/mL
[4]
  half-life: 456 min

## C[C@H]1CC2(CCN(c3cnc(C(=O)N4CCC(CN5Cc6cc7c(cc6C5)C(=O)N(C5CCC(=O)NC5=O)C7=O)CC4)cn3)CC2)CN1c1ccc(C#N)c(Cl)c1 (stereo partly drawn) [Cpd. No. 495, 2-chloro-4-((3S)-8-(5-(4-((6-(2,6-dioxopiperidin-3-yl)-5,7-dioxo-3,5,6,7-tetrahydropyrrolo[3,4-f]isoindol-2(1H)-yl)methyl)piperidine-1-carbonyl)pyrazin-2-yl)-3-methyl-2,8-diazaspiro[4.5]decan-2-yl)benzonitrile]
  F: 107%
[1]
  AUC(0-t): 950 ng·h/mL
iv, 1 mg/kg, IV, dose 1 mg/kg
  clearance: 16.2 mL/min/kg
  Vd: 2.59 L/kg
[2]
  half-life: 156 min
po, 3 mg/kg
  Cmax: 722 ng/mL
  Tmax: 0.8 h
[3]
  AUC(0-t): 3050 ng·h/mL
[4]
  half-life: 204 min
